Measurements from patent US20230414826A1, “FIBRIN HYDROGELS” (Mayo Foundation for Medical Education and Research, priority 2020, published 2023).
Values belong to the molecule of their own block, whether it stands above or below them.

Molecular target: T1, fibrinogen (Evicel) (Homo sapiens, UniProt P02671+P02675+P02679)
T1 construct: purchased Ethicon (Evicel Biologically Active Component 2)
T1 sequence (P02671 20-629 limits assumed): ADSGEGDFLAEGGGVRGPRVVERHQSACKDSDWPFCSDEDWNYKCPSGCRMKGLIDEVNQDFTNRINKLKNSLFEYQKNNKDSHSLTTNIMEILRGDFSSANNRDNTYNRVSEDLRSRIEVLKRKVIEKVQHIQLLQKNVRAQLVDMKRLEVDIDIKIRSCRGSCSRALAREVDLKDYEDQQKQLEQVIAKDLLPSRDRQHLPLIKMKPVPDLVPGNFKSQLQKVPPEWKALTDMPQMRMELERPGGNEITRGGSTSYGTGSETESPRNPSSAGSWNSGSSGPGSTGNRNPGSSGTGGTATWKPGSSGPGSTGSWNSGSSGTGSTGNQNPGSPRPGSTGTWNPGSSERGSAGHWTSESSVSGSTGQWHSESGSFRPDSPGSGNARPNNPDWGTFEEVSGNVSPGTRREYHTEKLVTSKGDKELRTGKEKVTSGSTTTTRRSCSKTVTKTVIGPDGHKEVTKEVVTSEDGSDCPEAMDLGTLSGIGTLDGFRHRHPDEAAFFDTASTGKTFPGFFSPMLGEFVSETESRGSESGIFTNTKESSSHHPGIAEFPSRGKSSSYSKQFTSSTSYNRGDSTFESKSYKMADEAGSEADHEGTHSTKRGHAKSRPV
T1 sequence (P02675 31-491): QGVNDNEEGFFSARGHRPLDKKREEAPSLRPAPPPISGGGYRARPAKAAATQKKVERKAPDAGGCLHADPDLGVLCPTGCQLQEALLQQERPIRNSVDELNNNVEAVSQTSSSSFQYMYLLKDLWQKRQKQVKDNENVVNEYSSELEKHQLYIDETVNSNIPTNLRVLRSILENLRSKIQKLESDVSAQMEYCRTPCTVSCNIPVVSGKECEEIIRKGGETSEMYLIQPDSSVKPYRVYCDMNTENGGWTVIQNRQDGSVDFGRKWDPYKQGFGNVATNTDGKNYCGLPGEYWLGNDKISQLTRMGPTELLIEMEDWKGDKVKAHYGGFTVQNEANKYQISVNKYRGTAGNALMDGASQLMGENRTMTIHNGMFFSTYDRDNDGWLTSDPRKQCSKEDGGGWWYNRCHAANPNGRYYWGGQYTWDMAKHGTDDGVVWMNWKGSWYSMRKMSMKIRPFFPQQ
T1 sequence (P02679 27-433 limits assumed): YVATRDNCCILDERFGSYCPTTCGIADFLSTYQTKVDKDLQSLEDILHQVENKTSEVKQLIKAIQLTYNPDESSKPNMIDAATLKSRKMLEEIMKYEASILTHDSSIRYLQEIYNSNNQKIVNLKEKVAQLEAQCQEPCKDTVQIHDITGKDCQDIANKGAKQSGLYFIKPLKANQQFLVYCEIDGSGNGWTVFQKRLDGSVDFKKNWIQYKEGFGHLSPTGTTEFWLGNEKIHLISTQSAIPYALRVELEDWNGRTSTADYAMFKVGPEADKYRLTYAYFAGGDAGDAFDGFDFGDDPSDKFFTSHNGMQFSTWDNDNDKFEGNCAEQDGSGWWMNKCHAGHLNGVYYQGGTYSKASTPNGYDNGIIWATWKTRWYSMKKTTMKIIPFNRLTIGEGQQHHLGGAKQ
Experiment: Fibrinogen clotting assay with coagulation analyzer (Clauss method), tissue glue fibrinogen
Format: biochemical
Details: for gelation time (average clotting time): 4.58 mM additive in PBS, fixed 1:20 dilution of fibrinogen (Evicel), n=10; for Effect on Clotting Time: screen, multiple concentrations up to 4.58 mM

Molecule: Cc1cc(N=Nc2ccc(C)c(N=Nc3cc(C)c(N)cc3N)c2)c(N)cc1N.Cl.Cl [BBr, Bismarck Brown R, reference compound]
gelation time (average clotting time): 18.9 ± 3.3 s
Effect on Clotting Time: No effect

Molecule: Nc1c(/N=N/c2ccc(-c3ccc(/N=N/c4cc(S(=O)(=O)O)c5ccccc5c4N)cc3)cc2)cc(S(=O)(=O)O)c2ccccc12 [CR, Congo Red, reference compound]
Effect on Clotting Time: caused protein precipitation
Effect on Clotting Time (listed as Congo Red (CR)): Precip

Molecule: Alcian Blue [AB, reference compound]
Effect on Clotting Time: caused protein precipitation
Effect on Clotting Time (listed as Alcian Blue (AB)): Precip

Molecule: Brilliant Blue R [BB, reference compound]
Effect on Clotting Time: caused protein precipitation
Effect on Clotting Time (listed as Brilliant Blue R (BB)): Precip

Next, values leading:

Effect on Clotting Time: caused protein precipitation
Effect on Clotting Time (listed as Indocyanine Green (ICG)): Precip
Molecule: CC1(C)C(/C=C/C=C/C=C/C=C2\N(CCCCS(=O)(=O)O)c3ccc4ccccc4c3C2(C)C)=[N+](CCCCS(=O)(=O)[O-])c2ccc3ccccc3c21 [ICG, Indocyanine Green, reference compound]

gelation time (average clotting time): 18.5 ± 2.6 s
Effect on Clotting Time: No effect
Molecule: O=C([O-])c1ccccc1-c1c2ccc(=O)cc-2oc2cc([O-])ccc12.[Na+].[Na+] [SF, Sodium Fluorescein, reference compound]
